Our source for the selectivity ratio and Ki values is ChEMBL document CHEMBL3526144 (Drug Metab Dispos, 2011).

The test system of series [1] is CYP3A4.7 and CYP3A4.1. Description: Ratio of Ki for CYP3A4.7 (unknown origin) to Ki for CYP3A4.1 (unknown origin). It is filed as ADME. The note with it: human.
For series [2], the system named is CYP3A4.16 and CYP3A4.1. Description: Ratio of Ki for CYP3A4.16 (unknown origin) to Ki for CYP3A4.1 (unknown origin). The note with it: human.
Series [3] can be described thus: Inhibition of CYP3A4.18 (unknown origin)-mediated testosterone 6beta-hydroxylation incubated for 10 mins prior to NADPH addition measured after 20 mins by HPLC-UV analysis.
Series [4] can be described thus: Inhibition of CYP3A4.1 (unknown origin)-mediated testosterone 6beta-hydroxylation incubated for 10 mins prior to NADPH addition measured after 20 mins by HPLC-UV analysis.
The test system of series [5] is CYP3A4.2 and CYP3A4.1. In words: Ratio of Ki for CYP3A4.2 (unknown origin) to Ki for CYP3A4.1 (unknown origin). In kind it is ADME. As to conditions: human.
Series [6] is described as follows: Inhibition of CYP3A4.2 (unknown origin)-mediated testosterone 6beta-hydroxylation incubated for 10 mins prior to NADPH addition measured after 20 mins by HPLC-UV analysis.
Series [7] in a line: Inhibition of CYP3A4.7 (unknown origin)-mediated testosterone 6beta-hydroxylation incubated for 10 mins prior to NADPH addition measured after 20 mins by HPLC-UV analysis.
Series [8] is described as follows: Inhibition of CYP3A4.16 (unknown origin)-mediated testosterone 6beta-hydroxylation incubated for 10 mins prior to NADPH addition measured after 20 mins by HPLC-UV analysis.

Consider `CCC(C)n1ncn(-c2ccc(N3CCN(c4ccc(OCC5COC(Cn6cncn6)(c6ccc(Cl)cc6Cl)O5)cc4)CC3)cc2)c1=O` (stereo not drawn) [ITRACONAZOLE], for which the results for the selectivity ratio in series [1], in series [2] and in series [5] were 2.4, 0.54 and 0.59, respectively. The Ki came out at 82 nM in series [3]; 76 nM in series [4]; 45 nM in series [6]; 179 nM in series [7]; 41 nM in series [8].
